{"source": "patent US20230296625A1", "about": "“CXCL14 AS PREDICTIVE BIOMARKER FOR ACUTE LIVER FAILURE AND DEATH” (University of Kansas, priority 2022, published 2023)", "key": {"[1]": {"system": "fasted male C57BL/6J mice", "details": "mouse, in vivo", "method": "The liver and plasma samples were collected between 6-72 hours after acetaminophen exposure.\nALT assay plasma alanine aminotransferase (ALT) activities were measured using an ALT test kit (Point Scientific, Inc, Canton, MI) per the manufacturer’s instruction."}, "[2]": {"system": "acetaminophen overdose patients", "details": "human, in vivo", "method": "A series of experiments were performed in order to evaluate the relevance of the findings from the mouse model (FIGS. 1A-1C), and whether the data can be relevant to humans. Plasma samples ([…]) were from acetaminophen overdose patients, where the plasma samples include 10 survivors with low injury, 30 survivors with high injury and 19 non-survivors. 10 healthy volunteer plasma samples were also obtained for comparison. Patients were categorized based on alanine amino transferase (ALT) level, with survivors with very mild ALT elevations at < 100 U/L categorized as low injury and survivors with peak ALT of 6200 U/L categorized as high injury.\nSince the time from acetaminophen exposure until the patient going to the clinic for treatment is highly variable, the day of peak ALT as day 1 was set for all patients to streamline data.\nWe measured CXCL14 in plasma of acetaminophen-induced injury patients for three days. To make the data more reliable due to the complicated admission day and time of acetaminophen being taken, Day 1 is chosen as the day of peak ALT. We observed no CXCL14 increase in low injury patients (<100 pg/mL). […] In contrast, we found CXCL14 level is significant increased at day 1 (7000 pg/mL), but its level keep elevated by day 3 (8000 pg/mL) with a much higher level compared to the survivors (FIG. 2B). Next, we want to determine whether CXCL14 level in plasma can predict patient outcome.\nAll results were expressed as mean ± SE. Comparisons between multiple groups were performed with one-way ANOVA or, where appropriate, by two-way ANOVA, followed by a post hoc Bonferroni test. If the data were not normally distributed, we used the Kruskal-Wallis Test (nonparametric ANOVA) followed by Dunn’s Multiple Comparisons Test. P < 0.05 was considered significant. Receiver operating characteristic analysis curve was performed to determine optimal threshold values to discriminate between survivors and non-survivors."}, "human liver": {"system": "human liver", "details": "in vivo", "method": "A western blot analysis on the removed liver from a transplant recipient after acetaminophen overdose was carried out to determine whether circulating CXCL14 levels also reflected levels within the human liver. […] Therefore, the biological sample can be a blood sample (or plasma) or a liver sample.\nHistology and Immunohistochemistry Formalin-fixed human and mouse tissue samples were embedded in paraffin and 5 µm sections were cut. Sections were stained with hematoxylin and eosin (H&E) for evaluation of the areas of necrosis. Additional liver sections were hydrated and went through antigen retrieval by boiling in sodium citrate buffer (pH 6.0). Liver sections were blocked in 3% BSA and serum then incubated with the primary antibodies overnight. Primary antibodies included anti-rabbit CD68 (Cell Signaling Technology, cat # 26042). Liver sections were washed and incubated in 3% hydrogen peroxide to block endogenous peroxidases. Biotinylated secondary antibody and DAB substrate were used to visualize the signals. Immunofluorescence staining was performed using 5 µm cryosections prepared from OCT-embedded tissue. Sections were blocked with 3% BSA and stained with anti-rabbit CXCL14 (Abcam, cat #264467). Fluorescence conjugated secondary antibodies Alexa Fluor 488 (Invitrogen, cat #A11034) goat anti rabbit was used.\nWestern blotting snap frozen tissue was homogenized in a CHAPs containing protein buffer and total protein was measured using the BCA assay (Pierce Scientific, Waltham, Massachusetts). Gel electrophoresis was carried out on protein lysates from individual samples, which were then transferred to a nitrocellulose blot."}}, "note": "Where two headings read alike, the source gives them in different places.", "data": [{"smiles": "CC(=O)Nc1ccc(O)cc1", "note": "[acetaminophen, N-acetyl-p-aminophenol]", "values": [{"measurement": "plasma ALT levels", "setting": "[1]; 300 mg/kg", "result": "return to baseline in both doses by 72 hours"}, {"measurement": "plasma ALT levels", "setting": "[1]; 600 mg/kg", "result": "return to baseline in both doses by 72 hours"}, {"measurement": "ALT elevations", "setting": "[2]", "result": "< 100", "unit": "U/L"}, {"measurement": "bilirubin", "setting": "[2]", "result": 12.5, "unit": "mg/dL"}, {"measurement": "prothrombin times", "setting": "[2]", "result": "significantly higher"}, {"measurement": "ALT", "setting": "human liver", "result": 1620.9, "unit": "U/L"}, {"measurement": "hepatic levels of CXCL14 (western blot)", "setting": "human liver", "result": "Elevation in hepatic levels of CXCL14 are evident"}, {"measurement": "macrophage staining with CD68", "setting": "human liver", "result": "significant increase in macrophage staining"}, {"measurement": "necrosis by H&E staining", "setting": "human liver", "result": "significant areas of necrosis"}, {"measurement": "staining for CXCL14 in liver sections", "setting": "human liver", "result": "significant elevations"}]}]}
